Source: the NIST ThermoML archive (doi:10.1016/j.jct.2018.12.031)
± gives the expanded uncertainty stated by the source.

Assay: xn = mol fraction of the nth substance listed
Settings: 100 kPa, Liquid; for speed of sound: Frequency=3 MHz, Linear variable-path acoustic interferometer; for mass density: Pycnometric method

C=C(C)C(=O)OCCCC [butyl 2-methyl-2-propenoate] + N#Cc1ccccc1
Settings	mass density [kg/m3]	speed of sound [m/s]
293.15 K, x2 = 0	895.19 ± 1	1241.7 ± 1.7
293.15 K, x2 = 0.0721	900.73 ± 1	1251.2 ± 1.7
293.15 K, x2 = 0.1507	907.02 ± 1	1262 ± 1.7
293.15 K, x2 = 0.2142	912.32 ± 1	1271.2 ± 1.7
293.15 K, x2 = 0.2876	918.72 ± 1	1282.1 ± 1.7
293.15 K, x2 = 0.3511	924.51 ± 1	1291.9 ± 1.7
293.15 K, x2 = 0.4297	932.05 ± 1	1304.6 ± 1.7
293.15 K, x2 = 0.4985	939.01 ± 1	1316.5 ± 1.7
293.15 K, x2 = 0.5715	946.81 ± 1	1330 ± 1.7
293.15 K, x2 = 0.6465	955.32 ± 1	1344.9 ± 1.7
293.15 K, x2 = 0.7147	963.54 ± 1	1359.7 ± 1.7
293.15 K, x2 = 0.7784	971.67 ± 1	1374.6 ± 1.7
293.15 K, x2 = 0.8558	982.2 ± 1	1394.4 ± 1.7
293.15 K, x2 = 0.9326	993.43 ± 1	1416.2 ± 1.7
298.15 K, x2 = 0	890.48 ± 1	1222.1 ± 1.7
298.15 K, x2 = 0.0721	896.08 ± 1	1231.8 ± 1.7
298.15 K, x2 = 0.1507	902.44 ± 1	1242.8 ± 1.7
298.15 K, x2 = 0.2142	907.79 ± 1	1252 ± 1.7
298.15 K, x2 = 0.2876	914.25 ± 1	1262.8 ± 1.7
298.15 K, x2 = 0.3511	920.1 ± 1	1272.6 ± 1.7
298.15 K, x2 = 0.4297	927.7 ± 1	1285.3 ± 1.7
298.15 K, x2 = 0.4985	934.73 ± 1	1297.1 ± 1.7
298.15 K, x2 = 0.5715	942.6 ± 1	1310.6 ± 1.7
298.15 K, x2 = 0.6465	951.19 ± 1	1325.7 ± 1.7
298.15 K, x2 = 0.7147	959.49 ± 1	1340.5 ± 1.7
298.15 K, x2 = 0.7784	967.7 ± 1	1355.6 ± 1.7
298.15 K, x2 = 0.8558	978.33 ± 1	1375.6 ± 1.7
298.15 K, x2 = 0.9326	989.66 ± 1	1397.6 ± 1.7
303.15 K, x2 = 0	885.78 ± 1	1202.4 ± 1.7
303.15 K, x2 = 0.0721	891.44 ± 1	1212.4 ± 1.7
303.15 K, x2 = 0.1507	897.86 ± 1	1223.6 ± 1.7
303.15 K, x2 = 0.2142	903.26 ± 1	1232.8 ± 1.7
303.15 K, x2 = 0.2876	909.78 ± 1	1243.7 ± 1.7
303.15 K, x2 = 0.3511	915.69 ± 1	1253.4 ± 1.7
303.15 K, x2 = 0.4297	923.35 ± 1	1266.3 ± 1.7
303.15 K, x2 = 0.4985	930.45 ± 1	1278.1 ± 1.7
303.15 K, x2 = 0.5715	938.39 ± 1	1291.6 ± 1.7
303.15 K, x2 = 0.6465	947.06 ± 1	1306.8 ± 1.7
303.15 K, x2 = 0.7147	955.44 ± 1	1321.9 ± 1.7
303.15 K, x2 = 0.7784	963.73 ± 1	1337.2 ± 1.7
303.15 K, x2 = 0.8558	974.46 ± 1	1357.7 ± 1.7
303.15 K, x2 = 0.9326	985.89 ± 1	1379.9 ± 1.7
308.15 K, x2 = 0	881.07 ± 1	1183 ± 1.7
308.15 K, x2 = 0.0721	886.79 ± 1	1193.2 ± 1.7
308.15 K, x2 = 0.1507	893.27 ± 1	1204.6 ± 1.7
308.15 K, x2 = 0.2142	898.72 ± 1	1213.9 ± 1.7
308.15 K, x2 = 0.2876	905.3 ± 1	1225 ± 1.7
308.15 K, x2 = 0.3511	911.26 ± 1	1234.8 ± 1.7
308.15 K, x2 = 0.4297	919 ± 1	1247.7 ± 1.7
308.15 K, x2 = 0.4985	926.16 ± 1	1259.6 ± 1.7
308.15 K, x2 = 0.5715	934.18 ± 1	1273.2 ± 1.7
308.15 K, x2 = 0.6465	942.93 ± 1	1288.5 ± 1.7
308.15 K, x2 = 0.7147	951.39 ± 1	1303.8 ± 1.7
308.15 K, x2 = 0.7784	959.75 ± 1	1319.5 ± 1.7
308.15 K, x2 = 0.8558	970.58 ± 1	1340.4 ± 1.7
308.15 K, x2 = 0.9326	982.12 ± 1	1362.9 ± 1.7
313.15 K, x2 = 0	876.35 ± 1	1163.8 ± 1.7
313.15 K, x2 = 0.0721	882.13 ± 1	1174.3 ± 1.7
313.15 K, x2 = 0.1507	888.68 ± 1	1185.8 ± 1.7
313.15 K, x2 = 0.2142	894.18 ± 1	1195.3 ± 1.7
313.15 K, x2 = 0.2876	900.82 ± 1	1206.5 ± 1.7
313.15 K, x2 = 0.3511	906.83 ± 1	1216.5 ± 1.7
313.15 K, x2 = 0.4297	914.65 ± 1	1229.5 ± 1.7
313.15 K, x2 = 0.4985	921.87 ± 1	1241.5 ± 1.7
313.15 K, x2 = 0.5715	929.96 ± 1	1255.2 ± 1.7
313.15 K, x2 = 0.6465	938.79 ± 1	1270.7 ± 1.7
313.15 K, x2 = 0.7147	947.33 ± 1	1286.3 ± 1.7
313.15 K, x2 = 0.7784	955.77 ± 1	1302.3 ± 1.7
313.15 K, x2 = 0.8558	966.7 ± 1	1323.7 ± 1.7
313.15 K, x2 = 0.9326	978.35 ± 1	1346.9 ± 1.7
318.15 K, x2 = 0	871.64 ± 1	1145.7 ± 1.7
318.15 K, x2 = 0.0721	877.48 ± 1	1156.5 ± 1.6
318.15 K, x2 = 0.1507	884.09 ± 1	1168.2 ± 1.6
318.15 K, x2 = 0.2142	889.64 ± 1	1177.8 ± 1.6
318.15 K, x2 = 0.2876	896.34 ± 1	1189.1 ± 1.6
318.15 K, x2 = 0.3511	902.4 ± 1	1199.1 ± 1.6
318.15 K, x2 = 0.4297	910.29 ± 1	1212.1 ± 1.6
318.15 K, x2 = 0.4985	917.58 ± 1	1224.2 ± 1.6
318.15 K, x2 = 0.5715	925.74 ± 1	1238 ± 1.6
318.15 K, x2 = 0.6465	934.65 ± 1	1253.7 ± 1.6
318.15 K, x2 = 0.7147	943.27 ± 1	1269.6 ± 1.7
318.15 K, x2 = 0.7784	951.79 ± 1	1285.9 ± 1.7
318.15 K, x2 = 0.8558	962.82 ± 1	1307.8 ± 1.7
318.15 K, x2 = 0.9326	974.58 ± 1	1331.5 ± 1.7
